Assay results: article PMC6704710, “Preclinical evaluation of 3D185, a novel potent inhibitor of FGFR1/2/3 and CSF-1R, in FGFR-dependent and macrophage-dominant cancer models” (Journal of Experimental & Clinical Cancer Research : CR, 2019)

Experiments:
[1] = test system: CSF-1-differentiated macrophages induced RT112 cell migration; test: Tumor cell migration assay (Transwell co-culture); assay type: cell-based, human; conditions: 25 nM, 24 h
B-Raf(V599E)(h) = target: T1, B-Raf(V599E)(h) (Homo sapiens, UniProt P15056, V600E); test: Eurofins kinase panel; assay type: biochemical; conditions: read-out: Inhibition rate (%)
T1 construct: purchased Eurofins (KinaseProfiler)
T1 sequence (P15056 417-766 V600E limits assumed): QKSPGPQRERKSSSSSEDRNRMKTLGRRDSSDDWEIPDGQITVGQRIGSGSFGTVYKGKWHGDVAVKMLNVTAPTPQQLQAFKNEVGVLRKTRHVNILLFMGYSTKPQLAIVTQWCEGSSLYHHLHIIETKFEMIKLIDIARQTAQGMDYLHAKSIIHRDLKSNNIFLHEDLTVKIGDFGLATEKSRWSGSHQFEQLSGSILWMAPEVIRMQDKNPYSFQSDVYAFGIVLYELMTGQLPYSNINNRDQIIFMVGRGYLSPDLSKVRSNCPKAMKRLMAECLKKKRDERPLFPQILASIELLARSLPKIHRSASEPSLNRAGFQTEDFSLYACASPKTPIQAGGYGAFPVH

FGFR1 = target: T2, FGFR1 (Homo sapiens, UniProt P11362); test: Kinase inhibition assay (ELISA); assay type: biochemical
T2 construct: purchased Eurofins (Fremont, United States)
T2 sequence (P11362 22-822): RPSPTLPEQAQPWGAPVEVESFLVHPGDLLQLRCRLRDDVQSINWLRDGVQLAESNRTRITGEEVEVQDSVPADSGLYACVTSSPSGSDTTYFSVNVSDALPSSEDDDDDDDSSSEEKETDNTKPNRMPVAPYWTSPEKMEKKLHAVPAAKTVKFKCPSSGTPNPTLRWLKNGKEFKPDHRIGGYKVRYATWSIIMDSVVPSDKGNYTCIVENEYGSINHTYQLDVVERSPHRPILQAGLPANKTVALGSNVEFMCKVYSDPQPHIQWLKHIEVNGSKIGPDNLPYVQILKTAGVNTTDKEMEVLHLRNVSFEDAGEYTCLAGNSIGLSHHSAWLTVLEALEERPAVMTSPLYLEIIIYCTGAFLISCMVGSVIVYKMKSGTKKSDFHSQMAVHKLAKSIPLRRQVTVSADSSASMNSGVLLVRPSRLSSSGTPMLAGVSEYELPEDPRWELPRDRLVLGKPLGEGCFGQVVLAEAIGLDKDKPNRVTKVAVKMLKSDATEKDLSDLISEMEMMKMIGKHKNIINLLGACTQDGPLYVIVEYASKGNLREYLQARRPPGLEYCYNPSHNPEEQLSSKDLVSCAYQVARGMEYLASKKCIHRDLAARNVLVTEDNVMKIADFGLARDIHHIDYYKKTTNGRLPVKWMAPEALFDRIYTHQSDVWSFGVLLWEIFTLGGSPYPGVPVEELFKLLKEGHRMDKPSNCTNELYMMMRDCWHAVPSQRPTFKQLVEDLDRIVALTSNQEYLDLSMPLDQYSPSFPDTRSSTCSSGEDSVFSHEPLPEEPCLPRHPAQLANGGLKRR
Method: Active FGFR1–4, VEGFR1, KDR, VEGFR3, PDGFRα and PDGFRβ proteins were purchased from Eurofins (Fremont, United States), and kinase activity was assessed using ELISA, as previously reported. […]. Increasing concentrations of ATP were diluted for the kinase reaction in the ATP competition assay. CSF-1R kinase activity was analyzed using the Z’-LYTE™ Kinase Assay Kit (Thermo Fisher, United States). The assay formats are described in the SelectScreen Kinase Profiling Service Zlyte protocol. IC50 values were calculated by dose-response curve fitting using Prism (Graph Pad).

SGK3(h) = target: T3, SGK3(h) (Homo sapiens, UniProt Q96BR1); test: Eurofins kinase panel; assay type: biochemical; conditions: read-out: Inhibition rate (%)
T3 construct: purchased Eurofins (KinaseProfiler)
T3 sequence (Q96BR1 1-496): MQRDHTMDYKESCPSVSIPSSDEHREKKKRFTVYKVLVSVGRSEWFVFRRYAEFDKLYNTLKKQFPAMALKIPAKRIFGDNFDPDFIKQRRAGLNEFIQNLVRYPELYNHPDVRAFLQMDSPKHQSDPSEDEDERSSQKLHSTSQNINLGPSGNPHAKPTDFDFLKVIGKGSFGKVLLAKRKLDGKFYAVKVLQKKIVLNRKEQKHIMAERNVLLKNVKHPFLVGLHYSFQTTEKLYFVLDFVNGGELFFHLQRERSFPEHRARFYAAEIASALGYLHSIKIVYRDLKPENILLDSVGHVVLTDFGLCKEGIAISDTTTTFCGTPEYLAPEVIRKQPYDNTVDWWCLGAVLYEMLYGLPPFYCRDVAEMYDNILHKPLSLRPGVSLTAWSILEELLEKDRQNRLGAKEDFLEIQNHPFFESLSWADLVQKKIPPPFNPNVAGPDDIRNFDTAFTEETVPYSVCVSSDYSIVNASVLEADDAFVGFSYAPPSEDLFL

CHK2(R145W)(h) = target: T4, CHK2(R145W)(h) (Homo sapiens, UniProt O96017, R145W); test: Eurofins kinase panel; assay type: biochemical; conditions: read-out: Inhibition rate (%)
T4 construct: purchased Eurofins (KinaseProfiler)
T4 sequence (O96017 whole entry R145W): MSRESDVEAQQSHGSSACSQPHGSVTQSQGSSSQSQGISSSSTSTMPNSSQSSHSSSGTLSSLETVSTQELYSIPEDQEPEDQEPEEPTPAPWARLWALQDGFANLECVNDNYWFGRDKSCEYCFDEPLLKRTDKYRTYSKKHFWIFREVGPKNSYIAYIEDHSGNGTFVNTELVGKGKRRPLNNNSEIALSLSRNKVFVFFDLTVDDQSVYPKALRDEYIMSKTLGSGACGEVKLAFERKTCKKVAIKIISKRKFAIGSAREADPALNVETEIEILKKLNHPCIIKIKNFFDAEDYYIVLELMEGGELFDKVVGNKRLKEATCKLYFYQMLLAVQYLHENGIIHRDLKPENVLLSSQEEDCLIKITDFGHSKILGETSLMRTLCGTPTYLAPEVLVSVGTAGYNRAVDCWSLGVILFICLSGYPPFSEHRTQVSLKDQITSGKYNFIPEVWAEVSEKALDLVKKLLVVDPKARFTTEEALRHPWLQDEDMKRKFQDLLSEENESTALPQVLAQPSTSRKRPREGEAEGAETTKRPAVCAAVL

AMPKα2(h) = target: T5, AMPKα2(h) (Homo sapiens, UniProt P54646); test: Eurofins kinase panel; assay type: biochemical; conditions: read-out: Inhibition rate (%)
T5 construct: purchased Eurofins (KinaseProfiler)
T5 sequence (P54646 whole entry): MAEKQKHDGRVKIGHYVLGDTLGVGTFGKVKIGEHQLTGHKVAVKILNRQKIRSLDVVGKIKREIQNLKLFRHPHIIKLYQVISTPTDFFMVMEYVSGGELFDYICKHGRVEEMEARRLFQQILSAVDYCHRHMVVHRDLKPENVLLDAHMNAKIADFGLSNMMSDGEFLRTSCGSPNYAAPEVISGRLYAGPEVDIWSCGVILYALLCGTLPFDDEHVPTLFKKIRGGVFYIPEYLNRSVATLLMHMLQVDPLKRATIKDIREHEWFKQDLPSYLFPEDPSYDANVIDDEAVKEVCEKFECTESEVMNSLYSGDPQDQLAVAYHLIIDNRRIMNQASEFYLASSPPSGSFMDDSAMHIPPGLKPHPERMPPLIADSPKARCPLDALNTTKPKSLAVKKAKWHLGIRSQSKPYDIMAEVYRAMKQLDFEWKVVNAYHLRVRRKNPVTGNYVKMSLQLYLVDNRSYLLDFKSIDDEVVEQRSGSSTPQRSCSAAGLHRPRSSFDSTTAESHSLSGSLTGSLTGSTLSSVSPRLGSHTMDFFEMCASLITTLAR
T5 sequence (Q9Y478 whole entry partner): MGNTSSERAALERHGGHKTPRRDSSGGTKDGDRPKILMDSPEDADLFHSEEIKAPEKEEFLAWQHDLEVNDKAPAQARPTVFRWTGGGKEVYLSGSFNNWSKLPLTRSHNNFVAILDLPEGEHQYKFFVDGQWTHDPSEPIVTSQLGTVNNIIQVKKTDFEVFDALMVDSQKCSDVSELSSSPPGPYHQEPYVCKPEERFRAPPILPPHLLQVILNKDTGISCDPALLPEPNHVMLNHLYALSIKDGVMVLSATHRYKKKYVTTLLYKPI
T5 sequence (P54619 whole entry partner): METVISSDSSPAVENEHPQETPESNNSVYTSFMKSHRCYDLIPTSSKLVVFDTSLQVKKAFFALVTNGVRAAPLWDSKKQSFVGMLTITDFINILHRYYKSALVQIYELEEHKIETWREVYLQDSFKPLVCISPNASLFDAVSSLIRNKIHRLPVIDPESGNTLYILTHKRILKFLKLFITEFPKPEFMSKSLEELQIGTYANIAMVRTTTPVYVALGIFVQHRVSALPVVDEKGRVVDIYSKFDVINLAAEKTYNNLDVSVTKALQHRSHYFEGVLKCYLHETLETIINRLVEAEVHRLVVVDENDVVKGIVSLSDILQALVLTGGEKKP

MDA-MB-453 = test: Cell proliferation assay; assay type: cell-based; conditions: Homo sapiens, Fig. 2G
Method: (§1) The cancer cell lines indicated in Figure 3 were seeded in 96-well plates at a low density in growth medium. The next day, appropriate controls or the designated concentrations of the compounds were added to each well, and the cells were incubated for 72 h. HUVECs (passage 3) were seeded in 96-well plates in growth medium overnight and transferred to serum-free medium for 24 h. The following day, appropriate controls or the designated concentrations of the compounds were added to each well, and 100 ng/mL growth factor (bFGF or VEGF) was added to the indicated wells. The cells were incubated for 48 h. Finally, cell proliferation was determined using a sulforhodamine B (SRB) assay or a cell counting kit-8 (CCK-8) assay. […] IC50 values for proliferation curves were calculated using a 4-parameter logistic nonlinear regression model with SoftMax Pro Software (Molecular Devices, San Jose, USA).

HCC78 = test: Cell proliferation assay; assay type: cell-based; conditions: Homo sapiens, Fig. 2G
Method: as §1

MCF-7 = test: Cell proliferation assay; assay type: cell-based; conditions: Homo sapiens, MCF7; Fig. 2G
Method: as §1

NCI-H460 = test: Cell proliferation assay; assay type: cell-based; conditions: Homo sapiens, Fig. 2G
Method: as §1

A375 = test: Cell proliferation assay; assay type: cell-based; conditions: Homo sapiens, A-375; Fig. 2G
Method: as §1

HCC366 = test: Cell proliferation assay; assay type: cell-based; conditions: Homo sapiens, Fig. 2G
Method: as §1

T47D = test: Cell proliferation assay; assay type: cell-based; conditions: Homo sapiens, Fig. 2G
Method: as §1

CAL51 = test: Cell proliferation assay; assay type: cell-based; conditions: Homo sapiens, CAL-51; Fig. 2G
Method: as §1

SGC-7901 = test: Cell proliferation assay; assay type: cell-based; conditions: Homo sapiens, Fig. 2G
Method: as §1

MKN28 = test: Cell proliferation assay; assay type: cell-based; conditions: Homo sapiens, MKN-28; Fig. 2G
Method: as §1

MKN45 = test: Cell proliferation assay; assay type: cell-based; conditions: Homo sapiens, MKN-45; Fig. 2G
Method: as §1

MKN1 = test: Cell proliferation assay; assay type: cell-based; conditions: Homo sapiens, MKN-1; Fig. 2G
Method: as §1

NCI-H2444 = test: Cell proliferation assay; assay type: cell-based; conditions: Homo sapiens, Fig. 2G
Method: as §1

NCI-H1299 = test: Cell proliferation assay; assay type: cell-based; conditions: Homo sapiens, Fig. 2G
Method: as §1

SK-BR-3 = test: Cell proliferation assay; assay type: cell-based; conditions: Homo sapiens, Fig. 2G
Method: as §1

HCC1954 = test: Cell proliferation assay; assay type: cell-based; conditions: Homo sapiens, Fig. 2G
Method: as §1

BGC-823 = test: Cell proliferation assay; assay type: cell-based; conditions: Homo sapiens, Fig. 2G
Method: as §1

NCI-H520 = test: Cell proliferation assay; assay type: cell-based; conditions: Homo sapiens, Fig. 2G
Method: as §1

EBC-1 = test: Cell proliferation assay; assay type: cell-based; conditions: Homo sapiens, Fig. 2G
Method: as §1

NCI-H1975 = test: Cell proliferation assay; assay type: cell-based; conditions: Homo sapiens, Fig. 2G
Method: as §1

Question: How did the “effect on macrophage-induced RT112 cell migration” value [1] turn out when COc1cc(OC)c(Cl)c(-c2ccc3c(NC(=O)c4ccc(N5CCNC(C)(C)C5)cc4)n[nH]c3n2)c1Cl [3D185] was run?
Answer: blocking most cell migration

Question: What about the inhibition at 0.01 µM (B-Raf(V599E)(h); 10 nM) of the same molecule?
Answer: -1%

Question: What about the inhibition at 0.1 µM (B-Raf(V599E)(h); 100 nM) of the same molecule?
Answer: -6%

Question: And the inhibition at 1 µM (B-Raf(V599E)(h); 1000 nM)?
Answer: 7%

Question: What about the mode of inhibition (FGFR1; ATP competition assay) of the same molecule?
Answer: ATP-competitive inhibitor

Question: And the “selectivity for FGFR over PDGFRα, PDGFRβ, VEGFR1 and VEGFR3” value (FGFR1; kinase assays)?
Answer: > 2000 fold

Question: What about the IC50 (FGFR1; mean ± SD) of the same molecule?
Answer: 0.5 nM

Question: And the inhibition at 0.01 µM (SGK3(h); 10 nM)?
Answer: 3%

Question: And the inhibition at 0.1 µM (SGK3(h); 100 nM)?
Answer: 2%

Question: And the inhibition at 1 µM (SGK3(h); 1000 nM)?
Answer: 14%

Question: What about the inhibition at 0.01 µM (CHK2(R145W)(h); 10 nM) of the same molecule?
Answer: -17%

Question: And the inhibition at 0.1 µM (CHK2(R145W)(h); 100 nM)?
Answer: -15%

Question: And the inhibition at 1 µM (CHK2(R145W)(h); 1000 nM)?
Answer: -4%

Question: And the inhibition at 0.01 µM (AMPKα2(h); 10 nM)?
Answer: -4%

Question: And the inhibition at 0.1 µM (AMPKα2(h); 100 nM)?
Answer: -8%

Question: And the inhibition at 1 µM (AMPKα2(h); 1000 nM)?
Answer: 9%

Question: What about the IC50 (MDA-MB-453) of the same molecule?
Answer: > 1000 nM

Question: And the IC50 (HCC78)?
Answer: > 1000 nM

Question: What about the IC50 (MCF-7) of the same molecule?
Answer: > 1000 nM

Question: And the IC50 (NCI-H460)?
Answer: > 1000 nM

Question: What about the IC50 (A375) of the same molecule?
Answer: > 1000 nM

Question: And the IC50 (HCC366)?
Answer: > 1000 nM

Question: What about the IC50 (T47D) of the same molecule?
Answer: > 1000 nM

Question: What about the IC50 (CAL51) of the same molecule?
Answer: > 1000 nM

Question: And the IC50 (SGC-7901)?
Answer: > 1000 nM

Question: And the IC50 (MKN28)?
Answer: > 1000 nM

Question: And the IC50 (MKN45)?
Answer: > 1000 nM

Question: And the IC50 (MKN1)?
Answer: > 1000 nM

Question: And the IC50 (NCI-H2444)?
Answer: > 1000 nM

Question: And the IC50 (NCI-H1299)?
Answer: > 1000 nM

Question: What about the IC50 (SK-BR-3) of the same molecule?
Answer: > 1000 nM

Question: And the IC50 (HCC1954)?
Answer: > 1000 nM

Question: And the IC50 (BGC-823)?
Answer: > 1000 nM

Question: And the IC50 (NCI-H520)?
Answer: > 1000 nM

Question: What about the IC50 (EBC-1) of the same molecule?
Answer: > 1000 nM

Question: What about the IC50 (NCI-H1975) of the same molecule?
Answer: > 1000 nM
